In patent US10226448B2, “3-(1H-pyrrolo[3,2-C]pyridin-2-yl)-1H-pyrazolo[3,4-B]pyridines and therapeutic uses thereof” (Samumed, LLC, priority 2015, dated 2019) one finds EC50, inhibition and Emax data, which are given here for eleven compounds.

Holding throughout (format): cell-based
The test system of assay [1] is IL-6 in THP-1 cells. The assay is described as follows: IL-6 inhibition in LPS-stimulated THP-1 human monocyte cells (HTRF). As to conditions: for EC50: IL-6 inhibition, LPS-stimulated THP-1 cells, HTRF, 10-point dose-response starting from 10 μM; for inhibition at 10 µM: THP-1, read-out: percentage in parentheses beside EC50 >10. The protocol: Compound Screening: THP-1 cells were cultured in basal media with 1% FBS for 24 hours before the start of the assay. […] THP-1 cells were plated at 5000 cells/well in the 384-well plates and incubated at 37° C. for 2 h. 500 ng/mL of LPS was added after 2 hours and cells were incubated for another 22 hours at 37° C. Plates were spun in a centrifuge for 1 minute at […] and a mixture of anti-IL6 XL665, and anti-IL6 Cryptate diluted in reconstitution buffer (Cisbio Inc.) was added to each well. Following incubation for 3 hrs at room temperature, Homogeneous Time-Resolved Fluorescence (HTRF) was measured using the Envision (Perkin Elmer) at 665 nm and […]. The ratio of fluorescence at 665 nm to 620 nm was used as a readout for IL6 quantification. All samples were processed in duplicate. Readings were normalized to DMSO treated cells and normalized activities were utilized for EC50 calculations using the dose-response log (inhibitor) vs. response variable slope (four parameters) nonlinear regression feature available in GraphPad Prism 5.0 (or Dotmatics).

The test system of assay [2] is Wnt activity (Sp5-Luc reporter, TCF/LEF binding sites) in SW480 colon carcinoma cells. Kind of assay: Wnt activity screening assay: Sp5-Luc reporter gene assay in SW480 cells. As to conditions: Homo sapiens; for inhibition at 10 µM: SW480, read-out: percent inhibition at 10 μM; for EC50: Sp5-Luc reporter, SW480 cells, overnight incubation. An excerpt: The screening assay for Wnt activity is described as follows. Reporter cell lines can be generated by stably transducing cancer cell lines (e.g., colon cancer) or primary cells (e.g., IEC-6 intestinal cells) with a lentiviral construct that includes a Wnt-responsive promoter driving expression of the firefly luciferase gene.
SW480 colon carcinoma cells were transduced with a lentiviral vector expressing luciferase with a human Sp5 promoter consisting of a sequence of eight TCF/LEF binding sites. SW480 cells stably expressing the Sp5-Luc reporter gene and a hygromycin resistance gene were selected by treatment with 150 μg/mL of hygromycin for 7 days. These stably transduced SW480 cells were expanded in cell culture and used for all further screening activities. […] For Sp5-Luc reporter gene assays, the cells were plated at 4,000 cells/well in 384-well plates with medium containing 1% fetal bovine serum and incubated overnight at 37° C. and 5% CO2. Following incubation, 20 μl of BrightGlo luminescence reagent (Promega) was added to each well of the 384-well assay plates. The plates were placed on an orbital shaker for 2 min and then luminescence was quantified using the Envision (Perkin Elmer) plate reader. Readings were normalized to DMSO only treated cells, and normalized activities were utilized for EC50 calculations using the dose-response log (inhibitor) vs. response variable slope (four parameters) nonlinear regression feature available in GraphPad Prism 5.0 (or Dotmatics).

For assay [3], the system named is primary human mesenchymal stem cells (hMSCs). Kind of assay: Induction of chondrogenesis in primary human mesenchymal stem cells (chondrogenic nodules, Rhodamine B / Nile Red). As to conditions: 6 days; for EC50: concentration required to induce 50% levels of chondrogenesis vs TGF-β3, read-out: Conc (nM) of 50% TGF-β3 activity; for Emax: relative to TGF-β3 (10 ng/mL) positive control, read-out: Max. Activity as % TGF-β3 activity. An excerpt:
Representative compounds were screened using primary human mesenchymal stem cells (hMSCs) to determine their ability to induce chondrogenesis (process by which cartilage is developed).
Human Mesenchymal Stem Cell Culture: Primary human mesenchymal stem cells (hMSCs) were purchased from Lonza (Walkersville, Md.) and expanded in Mesenchymal Stem Cell Growth Media (Lonza). Cells between passage 3 and 6 were used for the experiments.
To image chondrogenic nodules, the cells were fixed using 4% formaldehyde (Electron Microscopy Sciences), and stained with 2 μg/mL Rhodamine B (Sigma-Aldrich) and 20 μM Nile Red (Sigma-Aldrich) [Johnson K., et. al, A Stem Cell-Based Approach to Cartilage Repair, Science, (2012). […] Number of nodules in each well was normalized to the average of 3 DMSO treated wells on the same plate using Excel (Microsoft Inc.). The normalized averages (fold change over DMSO) of 3 replicate wells for each compound concentration were calculated. Due to solubility limitations of some of the compounds, curve fitting was incomplete leading to inaccurate EC50 determinations.
Using TGF-β3 as a positive control, the concentration of representative compounds required to induce 50% levels of chondrogenesis is reported. In addition, the maximum activity of each compound and the respective dose that each compound reached maximum chondrogenesis activity is reported.

The test system of assay [4] is SW480 colon cancer cells. Kind of assay: Cell viability assay (CellTiter-Blue) in SW480 colon cancer cells. As to conditions: Homo sapiens; for EC50: 96 h, SW480 cell viability, four days, CellTiter-Blue; for inhibition at 10 µM: SW480, read-out: percent inhibition at 10 μM. As to the method: Representative compounds were screened using the following assay procedure to assess the effect on cell viability as described below.
Approximately 2×10^3 SW480 colon cancer cells were seeded into each well and allowed to incubate in the presence or absence of compound for four days at 37° C./5% CO2. Eight replicates of DMSO-treated cells served as controls and cells treated with compound were performed in duplicate.
After incubation, 20 μL of CellTiter-Blue (Promega) was added to each well allowed to incubate for approximately 3 hours. This reagent was a buffered solution which contains resazurin, metabolically active cells were able to reduce rezarurin (blue) into resorufin (pink) which was highly fluorescent. This measured fluorescence was used as a readout for cell viability.

Assay [5] concerns LL29 cells (primary human fibroblasts derived from IPF patients), α-smooth muscle actin. Kind of assay: Inhibition of the fibrotic process: αSMA staining in TGF-β1 treated primary human fibroblasts from IPF patients (LL29 cells). The conditions noted are these: Fibroblast; for EC50: 96 h, LL29 cells, TGF-β1 20 ng/mL, 4 days, % αSMA positive cells; for inhibition at 10 µM: read-out: percent inhibition at 10 μM. As to the method:
Representative compounds were screened using primary human fibroblasts (derived from IPF patients) treated with TGF-β1 to determine their ability to inhibit the fibrotic process.
LL29 cells are plated at 1,500 cells/well in 80 μL/well F12 medium supplemented with 1% Fetal Bovine Serum. […] Wells treated with TGF-β1 and containing DMSO were used as controls. […] Following incubation for 4 days, SYTOX green nucleic acid stain (Life Technologies [Thermo Fisher Scientific]) was added to the wells at a final concentration of 1 μM and incubated at room temperature for 30 min.

In the case of `CC(C)C(=O)Nc1cncc(-c2cnc3[nH]nc(-c4cc5c(N6CCN(C)CC6)nccc5[nH]4)c3c2)c1` [Compound 233, N-(5-(3-(4-(4-Methylpiperazin-1-yl)-1H-pyrrolo[3,2-c]pyridin-2-yl)-1H-pyrazolo[3,4-b]pyridin-5-yl)pyridin-3-yl)isobutyramide], the EC50 in assay [1] was 0.611 µM; in assay [2] it was greater than 10 µM; in assay [3], 30 nM; in assay [4], greater than 10 µM; in assay [5], greater than 10 µM. Besides, the inhibition at 10 µM in assay [2] is 19.5%; in assay [4] it was 10.7%; in assay [5], 34%. In addition, the Emax in assay [3] was 62%.

`Fc1ccc(-c2nccc3[nH]c(-c4n[nH]c5ncc(-c6cncc(CNCc7ccccc7)c6)cc45)cc23)cc1` [Compound 52, N-Benzyl-1-(5-(3-(4-(4-fluorophenyl)-1H-pyrrolo[3,2-c]pyridin-2-yl)-1H-pyrazolo[3,4-b]pyridin-5-yl)pyridin-3-yl)methanamine]: the EC50 in assay [1] was 1.26 µM; in assay [2] it was 0.854 µM; in assay [3], 900 nM; in assay [4] it was 0.346 µM; in assay [5], 0.458 µM. Further, in assay [3], the Emax is 179%.

With `Cc1ccncc1-c1cnc2[nH]nc(-c3cc4c(-c5cc(F)cc(CNS(C)(=O)=O)c5)nccc4[nH]3)c2c1` [Compound 481, N-(3-Fluoro-5-(2-(5-(4-methylpyridin-3-yl)-1H-pyrazolo[3,4-b]pyridin-3-yl)-1H-pyrrolo[3,2-c]pyridin-4-yl)benzyl)methanesulfonamide], the EC50 in assay [1] amounted to 0.307 µM; in assay [2], 0.662 µM; in assay [3] it was 900 nM; in assay [4], 1.5 µM; in assay [5], 0.6 µM. Also, the Emax in assay [3] is 173%.

Consider `CC(C)(C)CC(=O)Nc1cncc(-c2cnc3[nH]nc(-c4cc5cnccc5[nH]4)c3c2)c1` [Compound 268, N-(5-(3-(1H-Pyrrolo[3,2-c]pyridin-2-yl)-1H-pyrazolo[3,4-b]pyridin-5-yl)pyridin-3-yl)-3,3-dimethylbutanamide], for which the EC50 in assay [1] was determined as 0.683 µM; in assay [2], 0.605 µM; in assay [4], 1.1 µM; in assay [5], 3.35 µM. For the same compound, in assay [3], the Emax worked out at 7%.

On to `c1cc2[nH]c(-c3n[nH]c4ncc(-c5cncc(CN6CCCC6)c5)cc34)cc2c(-c2ccoc2)n1` [Compound 322, 3-(4-(Furan-3-yl)-1H-pyrrolo[3,2-c]pyridin-2-yl)-5-(5-(pyrrolidin-1-ylmethyl)pyridin-3-yl)-1H-pyrazolo[3,4-b]pyridine], for which the EC50 in assay [1] was greater than 10 µM; in assay [2] it was 4.05 µM; in assay [4] it was 2.34 µM; in assay [5] it was 2.21 µM. In assay [1], the inhibition at 10 µM stood at 29.4%.

As for `FC1(F)CCN(Cc2cncc(-c3cnc4[nH]nc(-c5cc6c(-c7ccoc7)nccc6[nH]5)c4c3)c2)C1` [Compound 334, 5-(5-((3,3-Difluoropyrrolidin-1-yl)methyl)pyridin-3-yl)-3-(4-(furan-3-yl)-1H-pyrrolo[3,2-c]pyridin-2-yl)-1H-pyrazolo[3,4-b]pyridine], the EC50 in assay [1] was found to be 0.102 µM; in assay [2], 0.199 µM; in assay [4], 0.369 µM; in assay [5], 0.912 µM.

For the compound `CN1CCN(c2nccc3[nH]c(-c4n[nH]c5ncc(-c6cncc(NC(=O)CC7CCNCC7)c6)cc45)cc23)CC1` [Compound 641, N-(5-(3-(4-(4-Methylpiperazin-1-yl)-1H-pyrrolo[3,2-c]pyridin-2-yl)-1H-pyrazolo[3,4-b]pyridin-5-yl)pyridin-3-yl)-2-(piperidin-4-yl)acetamide], the EC50 in assay [1], in assay [2], in assay [4] and in assay [5] was greater than 10 µM each time. The inhibition at 10 µM in assay [1] was determined as 7.6%; in assay [2] it was 0%; in assay [4], 6.5%; in assay [5], 0%.

Turning to `Fc1cccc(-c2nccc3[nH]c(-c4n[nH]c5ncc(C6CCNCC6)cc45)cc23)c1` [Compound 505, 3-(4-(3-Fluorophenyl)-1H-pyrrolo[3,2-c]pyridin-2-yl)-5-(piperidin-4-yl)-1H-pyrazolo[3,4-b]pyridine], the EC50 in assay [1] is 3.45 µM; in assay [2], 3.85 µM; in assay [4], 4.47 µM; in assay [5], 5.55 µM.

Consider `c1cc(-c2cnc3[nH]nc(-c4cc5c(N6CCCCC6)nccc5[nH]4)c3c2)ccn1` [Compound 186, 3-(4-(Piperidin-1-yl)-1H-pyrrolo[3,2-c]pyridin-2-yl)-5-(pyridin-4-yl)-1H-pyrazolo[3,4-b]pyridine], for which the EC50 in assay [1], in assay [2], in assay [4] and in assay [5] was greater than 10 µM each time. The inhibition at 10 µM in assay [1] was 25.4%; in assay [2], 30.8%; in assay [4] it was 11.1%; in assay [5], 0%.

For the compound `CN(C)c1cncc(-c2cnc3[nH]nc(-c4cc5c(-c6cccnc6)nccc5[nH]4)c3c2)c1` [Compound 91, N,N-Dimethyl-5-(3-(4-(pyridin-3-yl)-1H-pyrrolo[3,2-c]pyridin-2-yl)-1H-pyrazolo[3,4-b]pyridin-5-yl)pyridin-3-amine], the EC50 in assay [1] is greater than 10 µM; in assay [2] it was greater than 10 µM; in assay [4], greater than 10 µM; in assay [5], 6.98 µM. The results for the inhibition at 10 µM in assay [1], in assay [2] and in assay [4] were 32.3%, 41.6% and 3%, respectively.

As to `Fc1cccc(-c2nccc3[nH]c(-c4n[nH]c5ncc(-c6ccncc6)cc45)cc23)c1` [Compound 18, 3-(4-(3-Fluorophenyl)-1H-pyrrolo[3,2-c]pyridin-2-yl)-5-(pyridin-4-yl)-1H-pyrazolo[3,4-b]pyridine], the EC50 was greater than 10 µM in assay [1], greater than 10 µM in assay [2], 0.738 µM in assay [4] and 0.542 µM in assay [5]. Besides, the inhibition at 10 µM in assay [1] was 0%; in assay [2], 22.6%.
